Source: patent US20120149766A1, “DIETARY AND PHARMACEUTICAL COMPOSITIONS COMPRISING A SAGE EXTRACT CONTAINING A MIXTURE OF TRICYCLIC […] THEIR DERIVATIVES AND THEIR USES” (DSM IP ASSETS B.V., priority 2006, published 2012)
Like-named read-outs stand apart in the source and are kept apart here.

Legend:
mouse [1] = settings: for Number of marbles covered by sawdust, mean ± s.e.m.: 30-min test
Experimental: Mice (n=15 per treatment group) were individually placed in transparent plastic cages (33×21×18 cm) with 5 cm of sawdust on the floor and 25 marbles (diameter 1 cm) grouped in the centre of the cage. A second, up-turned, cage served as a lid. The number of marbles covered by sawdust (by at least two-thirds) was counted at the end of the 30-min test period. Tests were performed by investigators blind to the drug treatment protocol.
Prior to testing, all test cages and marbles were “impregnated” by leaving 10 naive mice in each cage for 15 minutes.
Sage extract B (30, 100, 300 mg/kg, p.o., 24, 5 and 1 h prior to the test) was thus investigated in the marble burying test to evaluate its potential anxiolytic effects in the mouse. Clobazam, fluoxetine and venlafaxine were used as reference compounds.

mouse [2] = experiment: Light-dark box test in the mouse; type: in vivo
Excerpt: The method, which detects anxiolytic activity, follows that described by Crawley (1981, Pharmacol. Biochem. Behav., 15:695-699). Anxiolytics increase the time spent in the light compartment.
Animals were placed in the light compartment of a two-compartment box with one half light and open (25×27×27 cm) and the other half dark and closed (20×27×27 cm). The time spent in each compartment as well as the number of times the animal crossed from one side to the other was scored during a 3-min test. 15 mice were studied per group. The test was performed blind.
Clobazam (32 mg/kg p.o., dispersed in 0.2% w/v hydroxypropylmethyl cellulose in distilled water), administered 1 h before the test, was used as reference substance. Mice in this group received additional administrations of vehicle at 24 h and 5 h before the test in order to maintain experimental blinding.

[3] = 24 mg/kg p.o. −24 h, −5 h and −1 h
[4] = 32 mg/kg p.o. −1 h (vehicle at −24 h and −5 h)
[5] = 32 mg/kg p.o. −1 h (vehicle at −24 h, −5 h)
[6] = 32 mg/kg p.o. −1 h (vehicle at −24 h, −5 h), 3-min test
[7] = 10 mg/kg p.o. −24 h, −5 h and −1 h

COc1ccc(C(CN(C)C)C2(O)CCCCC2)cc1 (stereo not shown) [Venlafaxine, venlafaxine]
Number of marbles covered by sawdust, % change from control (mouse [1]; [3]): −47%
Number of marbles covered by sawdust, mean ± s.e.m. (mouse [1]; [3]): 9.5 ± 1.8
Dead after the first administration (animals/group) (mouse [1]; 24 mg/kg p.o., mouse): #dead after the first administration ( 1/15) and after the second administration ( 1/15).
Dead after the second administration (animals/group) (mouse [1]; 24 mg/kg p.o., mouse): #dead after the first administration ( 1/15) and after the second administration ( 1/15).

CN1C(=O)CC(=O)N(c2ccccc2)c2cc(Cl)ccc21 [Clobazam, clobazam]
Number of marbles covered by sawdust, % change from control (mouse [1]; [4]): −84%
Number of marbles covered by sawdust, mean ± s.e.m. (mouse [1]; [4]): 2.9 ± 1.2
Number of crossings, % change from control (mouse [2]; [5]): +6%
Time spent in light compartment, % change from control (mouse [2]; [5]): +75%
Number of crossings, mean ± s.e.m. (mouse [2]; [6]): 11.9 ± 1.8 NS
Time spent in light compartment, mean ± s.e.m. (mouse [2]; [6]): 125.5 ± 6.4 s
Sedation (animals/group) (mouse [2]; 32 mg/kg p.o., mouse): 2/15

CNCCC(Oc1ccc(C(F)(F)F)cc1)c1ccccc1 (stereo not shown) [Fluoxetine, fluoxetine]
Number of marbles covered by sawdust, % change from control (mouse [1]; [7]): −58%
Number of marbles covered by sawdust, mean ± s.e.m. (mouse [1]; [7]): 7.6 ± 1.6
